Experimental data from US6583147B1, “Pyrazolopyrimidinone derivatives for the treatment of impotence” (Dong A Pharm Co., Ltd., priority 1998, dated 2003).
Converted amounts (≈) assume the structure as drawn. Read-outs that look alike come from different tables or passages of the source.

Assays:
[1] = Solubility in buffer solution in pH=2&5; format: physicochemical; settings: 20 °C, thermodynamic from solid
Method: According to that defined in the Korea Pharmacopoeia, citrate-HCl buffer (pH 2) and citrate-NaOH buffer (pH 5) solutions were added to the powdered compounds of formula 1, respectively. After subsequent severe shaking for 30 sec every 5 min in […] for 30 min, the level of compounds in the filtrate was measured by high performance liquid chromatography.

[2] = tested on: men with erectile dysfunction of organic cause; settings: oral administration; cited from earlier work
[3] = molecular target: T1, Phosphodiesterase-3 enzyme (PDE 3) (Oryctolagus cuniculus, UniProt G1ST54); test: Test for phosphodiesterase-3 (PDE 3) activity; format: biochemical; settings: PDE 3 fraction from platelets of a rabbit
T1 construct: The supernatant was separated by DEAE-cellulose column chromatography (Whatman DE52 bead); from tissue; host or cells: rabbit platelets
T1 sequence (G1ST54 1-1128): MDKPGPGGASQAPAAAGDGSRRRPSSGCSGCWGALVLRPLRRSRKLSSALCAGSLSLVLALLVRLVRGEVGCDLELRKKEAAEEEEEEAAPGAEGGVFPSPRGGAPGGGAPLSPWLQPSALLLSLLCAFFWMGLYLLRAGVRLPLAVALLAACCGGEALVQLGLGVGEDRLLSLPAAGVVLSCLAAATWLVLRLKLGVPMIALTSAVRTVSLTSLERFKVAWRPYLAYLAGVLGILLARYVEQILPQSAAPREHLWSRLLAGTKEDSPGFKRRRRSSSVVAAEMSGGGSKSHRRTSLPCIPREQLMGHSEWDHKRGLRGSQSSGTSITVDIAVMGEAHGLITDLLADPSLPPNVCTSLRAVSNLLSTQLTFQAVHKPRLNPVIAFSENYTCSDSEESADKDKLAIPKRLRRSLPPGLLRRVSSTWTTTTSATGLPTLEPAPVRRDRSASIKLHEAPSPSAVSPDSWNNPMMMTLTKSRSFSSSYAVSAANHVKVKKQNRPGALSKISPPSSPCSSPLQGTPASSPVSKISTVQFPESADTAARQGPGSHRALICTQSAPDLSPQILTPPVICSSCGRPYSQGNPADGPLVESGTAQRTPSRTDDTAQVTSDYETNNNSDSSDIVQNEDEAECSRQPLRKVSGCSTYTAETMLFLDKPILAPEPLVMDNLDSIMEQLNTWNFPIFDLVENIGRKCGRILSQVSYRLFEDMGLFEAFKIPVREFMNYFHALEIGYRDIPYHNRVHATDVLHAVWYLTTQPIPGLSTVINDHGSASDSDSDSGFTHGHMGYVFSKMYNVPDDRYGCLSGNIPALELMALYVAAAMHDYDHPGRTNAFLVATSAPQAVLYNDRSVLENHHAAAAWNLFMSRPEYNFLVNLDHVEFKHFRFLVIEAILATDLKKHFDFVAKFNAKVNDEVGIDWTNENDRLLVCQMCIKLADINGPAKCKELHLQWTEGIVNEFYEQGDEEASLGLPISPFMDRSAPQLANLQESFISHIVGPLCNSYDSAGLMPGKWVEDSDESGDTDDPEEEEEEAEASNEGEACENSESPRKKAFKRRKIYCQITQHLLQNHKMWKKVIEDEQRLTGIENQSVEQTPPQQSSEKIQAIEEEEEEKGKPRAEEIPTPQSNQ
Procedure, shortened: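 PDE3 taken from rabbit platelets as a DEAE-cellulose fraction, incubated with inhibitor and [3H]-cAMP or [3H]-cGMP (500 nM) for about 1 h at 30° C, pH 7.4. Product converted by snake venom or 5′-nucleotidase, unreacted substrate removed on anion-exchange resin, supernatant radioactivity counted by β-counter.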

[4] = molecular target: Phosphodiesterase-6 enzyme (PDE 6) (Aquarana catesbeiana, UniProt Z9LGG0MB32+Z9OH76POJ0); test: Test for phosphodiesterase-6 (PDE 6) activity; format: biochemical, bullfrog; settings: PDE 6 fraction from retina of bullfrogs, trypsin-activated
rats = test: Penile erection test using rats; format: in vivo, rat; settings: oral single dose 10 mg/kg in 0.5% methyl cellulose, observed for 2 hours

solubility at 30 min ([1]; citrate-HCl buffer, pH 2, aqueous buffer, citrate-HCl buffer (pH 2), read-out: solubility pH 2): 1580 µg/mL (≈ 3340 µM)
solubility at 30 min ([1]; citrate-NaOH buffer, pH 5, aqueous buffer, citrate-NaOH buffer (pH 5), read-out: solubility pH 5): 480 µg/mL (≈ 1010 µM)
IC50 [3]: 71.4 µM
IC50 [4]: 0.0767 ± 0.00153 µg/mL (≈ 0.162 µM)
SMILES: CCCc1nn(C)c2c(=O)[nH]c(-c3cc(S(=O)(=O)N4CCN(C)CC4)ccc3OCC)nc12 [sildenafil, reference compound]
response rate [2]: around 80%
genital grooming (number of genital groomings) (rats): 3.1 ± 1.2
